Reference: paper PMC9948168, “Vanillin-Based Indolin-2-one Derivative Bearing a Pyridyl Moiety as a Promising Anti-Breast Cancer Agent via Anti-Estrogenic Activity” (ACS Omega, 2023)

Tests used:
Assay in all cases: NCI-60 one-dose screening
Type in all cases: cell-based
SK-MEL-28 = details: Homo sapiens, SK-MEL-28, Melanoma, read-out: GI (%)
Protocol: (§1) Compounds 5a–c and 6a–o were tested using standard NCI protocols for in vitro activity at the National Cancer Institute (NCI, Bethesda, Maryland, USA), wherein compounds were tested using one single concentration of 10 μM against 60 cell lines of nine different cancer types. […] Excellent activity was observed against a single NSCLC cell line, EKVX, for compounds 5a–c (GIs = 77–86%, Table 1) with no observed activity for indoles with substituted vanillin 6a–o.
(§2) Anticancer activity was tested against 60 cancer cell lines at the NCI, Bethesda, USA. The screening process was done with a single dosage of 10 μM according to NCI protocols published on the NCI website https://dtp.cancer.gov/discovery_development/nci-60/methodology.htm.

NCI-H322M = details: Homo sapiens, Non-Small Cell Lung Cancer, read-out: GI (%)
Protocol: as §1, §2

UACC-62 = details: Homo sapiens, UACC-62, Melanoma, read-out: GI (%)
Protocol: as §1, §2

NCI-H460 = details: Homo sapiens, NCI-H460, Non-Small Cell Lung Cancer, read-out: GI (%)
Protocol: as §1, §2

MALME-3M = details: Homo sapiens, Melanoma, read-out: GI (%)
Protocol: as §1, §2

MDA-MB-435 = details: Homo sapiens, MDA-MB-435, Melanoma, read-out: GI (%)
Protocol: as §1, §2

HCT-15 = details: Homo sapiens, HCT-15, Colon Cancer, read-out: GI (%)
Protocol: as §1, §2

PC-3 = details: Homo sapiens, PC-3, Prostate Cancer, read-out: GI (%)
Protocol: as §1, §2

EKVX = details: Homo sapiens, Non-Small Cell Lung Cancer, read-out: GI (%)
Protocol: as §1, §2

NCI-H522 = details: Homo sapiens, NCI-H522, Non-Small Cell Lung Cancer, read-out: GI (%)
Protocol: as §1, §2

SF-539 = details: Homo sapiens, SF-539, CNS Cancer, read-out: GI (%)
Protocol: as §1, §2

SW-620 = details: Homo sapiens, SW-620, Colon Cancer, read-out: GI (%)
Protocol: as §1, §2

SK-OV-3 = details: Homo sapiens, SK-OV-3, Ovarian Cancer, read-out: GI (%)
Protocol: as §1, §2

NCI/ADR-RES = details: Homo sapiens, Ovarian Cancer, read-out: GI (%)
Protocol: as §1, §2

NCI-H23 = details: Homo sapiens, NCI-H23, Non-Small Cell Lung Cancer, read-out: GI (%)
Protocol: as §1, §2

HCT-116 = details: Homo sapiens, HCT-116, Colon Cancer, read-out: GI (%)
Protocol: as §1, §2

NCI-H226 = details: Homo sapiens, NCI-H226, Non-Small Cell Lung Cancer, read-out: GI (%)
Protocol: as §1, §2

UO-31 = details: Homo sapiens, UO-31, Renal Cancer, read-out: GI (%)
Protocol: as §1, §2

SK-MEL-5 = details: Homo sapiens, SK-MEL-5, Melanoma, read-out: GI (%)
Protocol: as §1, §2

RPMI-8226 = details: Homo sapiens, RPMI-8226, Leukemias, read-out: GI (%)
Protocol: as §1, §2

HT29 = details: Homo sapiens, HT-29, HT29, Colon Cancer, read-out: GI (%)
Protocol: as §1, §2

HOP-92 = details: Homo sapiens, HOP-92, Non-Small Cell Lung Cancer, read-out: GI (%)
Protocol: as §1, §2

OVCAR-4 = details: Homo sapiens, OVCAR-4, 10 μM; OVCAR-4, Ovarian Cancer; read-out: GI (%)
Protocol: as §1, §2

IGROV1 = details: Homo sapiens, IGROV-1, IGROV1, Ovarian Cancer, read-out: GI (%)
Protocol: as §1, §2

UACC-257 = details: Homo sapiens, UACC-257, Melanoma, read-out: GI (%)
Protocol: as §1, §2

KM12 = details: Homo sapiens, KM12, Colon Cancer, read-out: GI (%)
Protocol: as §1, §2

HS 578T = details: Homo sapiens, Breast Cancer, read-out: GI (%)
Protocol: as §1, §2

DU-145 = details: Homo sapiens, DU-145, Prostate Cancer, read-out: GI (%)
Protocol: as §1, §2

OVCAR-5 = details: Homo sapiens, OVCAR-5, Ovarian Cancer, read-out: GI (%)
Protocol: as §1, §2

SN12C = details: Homo sapiens, Renal Cancer, read-out: GI (%)
Protocol: as §1, §2

SF-268 = details: Homo sapiens, SF-268, CNS Cancer, read-out: GI (%)
Protocol: as §1, §2

A498 = details: Homo sapiens, A498, Renal Cancer, read-out: GI (%)
Protocol: as §1, §2

SR = details: Homo sapiens, Leukemias, read-out: GI (%)
Protocol: as §1, §2

BT-549 = details: Homo sapiens, BT-549, Breast Cancer, read-out: GI (%)
Protocol: as §1, §2

CCRF-CEM = details: Homo sapiens, Leukemias, read-out: GI (%)
Protocol: as §1, §2

SMILES	inhibition at 10 µM (SK-MEL-28) [%]	inhibition at 10 µM (NCI-H322M) [%]	inhibition at 10 µM (UACC-62) [%]	inhibition at 10 µM (NCI-H460) [%]	inhibition at 10 µM (MALME-3M) [%]	inhibition at 10 µM (MDA-MB-435) [%]	inhibition at 10 µM (HCT-15) [%]	inhibition at 10 µM (PC-3) [%]	inhibition at 10 µM (EKVX) [%]	inhibition at 10 µM (NCI-H522) [%]	inhibition at 10 µM (SF-539) [%]	inhibition at 10 µM (SW-620) [%]	inhibition at 10 µM (SK-OV-3) [%]	inhibition at 10 µM (NCI/ADR-RES) [%]	inhibition at 10 µM (NCI-H23) [%]	inhibition at 10 µM (HCT-116) [%]	inhibition at 10 µM (NCI-H226) [%]	inhibition at 10 µM (UO-31) [%]	inhibition at 10 µM (SK-MEL-5) [%]	inhibition at 10 µM (RPMI-8226) [%]	also measured
COc1cc(C=C2C(=O)Nc3ccccc32)ccc1O (mixture of isomers) [5a]	6.91	19.5	34.6	8.35	7.51	18.5	25.7	15.6	82.6	27.4	22.6	-0.49	5.29	8.73	16	24.2	-2.09	47.7	17.3	10.8	inhibition at 10 µM (HT29): -1.86%; inhibition at 10 µM (HOP-92): 35%; inhibition at 10 µM (OVCAR-4): 18.2%; inhibition at 10 µM (IGROV1): 25.6%; inhibition at 10 µM (UACC-257): 11.3%; inhibition at 10 µM (KM12): 9.4%; inhibition at 10 µM (HS 578T): 47.9%; inhibition at 10 µM (DU-145): 11.2%; inhibition at 10 µM (OVCAR-5): -2.51%; inhibition at 10 µM (SN12C): 16%; inhibition at 10 µM (SF-268): 14.7%; inhibition at 10 µM (A498): 2.96%; inhibition at 10 µM (SR): 36%; inhibition at 10 µM (BT-549): 25.6%; inhibition at 10 µM (CCRF-CEM): 10.2%
COc1cc(C=C2C(=O)Nc3ccc(Cl)cc32)ccc1O (mixture of isomers) [5b]	5.35	14.1	87.1	7.4	3.24	19.4	25.2	13.8	86.3	20.1	46.4	-3.74	-6.08	9.66	15.6	21.2	2.25	45	31.5	23.6	inhibition at 10 µM (HT29): -0.33%; inhibition at 10 µM (HOP-92): 34.6%; inhibition at 10 µM (OVCAR-4): 18.8%; inhibition at 10 µM (IGROV1): 16.2%; inhibition at 10 µM (UACC-257): 13.5%; inhibition at 10 µM (KM12): 7.96%; inhibition at 10 µM (HS 578T): 80.1%; inhibition at 10 µM (DU-145): 33.1%; inhibition at 10 µM (OVCAR-5): 0.41%; inhibition at 10 µM (SN12C): 14.6%; inhibition at 10 µM (SF-268): 29.1%; inhibition at 10 µM (A498): 25.6%; inhibition at 10 µM (SR): 47.9%; inhibition at 10 µM (BT-549): 25%; inhibition at 10 µM (CCRF-CEM): 22.6%
COc1cc(C=C2C(=O)Nc3ccccc32)ccc1OCc1ccccc1 (mixture of isomers) [6a]	-5.94	5.18	7.55	20.2	8.77	-3.92	12.2	5.85	8.21	9.6	0.76	9.55	-10.3	1.52	-2.84	10.3	-0.06	25.3	-3.35	1	inhibition at 10 µM (HT29): -2.25%; inhibition at 10 µM (HOP-92): 4.67%; inhibition at 10 µM (OVCAR-4): 3.22%; inhibition at 10 µM (IGROV1): 5.2%; inhibition at 10 µM (UACC-257): -21.2%; inhibition at 10 µM (KM12): -0.02%; inhibition at 10 µM (HS 578T): -7.03%; inhibition at 10 µM (DU-145): 0.43%; inhibition at 10 µM (OVCAR-5): -2.62%; inhibition at 10 µM (SN12C): 3.52%; inhibition at 10 µM (SF-268): -1%; inhibition at 10 µM (A498): -0.19%; inhibition at 10 µM (SR): 14.6%; inhibition at 10 µM (BT-549): 1.2%; inhibition at 10 µM (CCRF-CEM): 9.45%
COc1cc(C=C2C(=O)Nc3ccccc32)ccc1OCc1ccccn1 (mixture of isomers) [6e]	-7.83	8.2	11.6	0.59	6.1	-7.05	20	7.05	22.4	5.36	15.1	-0.45	-2	4.39	12.6	3.95	6.29	30.7	11.7	15.2	inhibition at 10 µM (HT29): 1.19%; inhibition at 10 µM (HOP-92): 28.1%; inhibition at 10 µM (OVCAR-4): 8.74%; inhibition at 10 µM (IGROV1): 21%; inhibition at 10 µM (UACC-257): -10.9%; inhibition at 10 µM (KM12): 3.09%; inhibition at 10 µM (HS 578T): -1.16%; inhibition at 10 µM (DU-145): 1.98%; inhibition at 10 µM (OVCAR-5): -3.35%; inhibition at 10 µM (SN12C): 2.56%; inhibition at 10 µM (SF-268): 6.47%; inhibition at 10 µM (A498): 22.2%; inhibition at 10 µM (SR): 21.7%; inhibition at 10 µM (BT-549): -6.45%; inhibition at 10 µM (CCRF-CEM): 8.27%
COc1cc(/C=C2/C(=O)Nc3cc(Cl)ccc32)ccc1OCc1ccc(F)cc1 [6m]	-5.13	1.78	11.2	1.02	7.28	-3.13	10.9	13	23.5	7.08	4.99	1.76	2.75	-0.91	-0.55	7.12	8.79	20.2	1.04	-13.2	inhibition at 10 µM (HT29): -5.1%; inhibition at 10 µM (HOP-92): 10.8%; inhibition at 10 µM (OVCAR-4): 16.8%; inhibition at 10 µM (IGROV1): 27.3%; inhibition at 10 µM (UACC-257): -9.31%; inhibition at 10 µM (KM12): -2.27%; inhibition at 10 µM (HS 578T): 8.25%; inhibition at 10 µM (DU-145): -4.25%; inhibition at 10 µM (OVCAR-5): 1.44%; inhibition at 10 µM (SN12C): 4.13%; inhibition at 10 µM (SF-268): -0.8%; inhibition at 10 µM (A498): 5.75%; inhibition at 10 µM (SR): 2.45%; inhibition at 10 µM (BT-549): 4.26%
